Key:
[1] = DRUGMATRIX: Potassium Channel [KATP] radioligand binding (ligand: [3H] Glyburide); type: cell membranes, Membrane; details: hit-t15; Not Active = under 50% inhibition at 10 µM
[2] = biological target: Matrix metalloproteinase-9 (Homo sapiens, UniProt P14780); test: biochemical; type: cell-based;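 also: inhibition of isolated MMP-9 enzyme activity toward a synthetic peptide substrate, from the DrugMatrix protease screening panel; in other assays of this panel Not Active means under 50% inhibition at 10 µM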
Glycine receptor = Glycine receptor (Rattus norvegicus, UniProt P22771+P24524+P07727+P20781); type: cell membranes, Wistar, Spinal cord, Membrane; also: in other assays of this panel Not Active means under 50% inhibition at 10 µM
[3] = biological target: T1, C-X-C chemokine receptor type 1 (Homo sapiens, UniProt P25024); also: in other assays of this panel Not Active means under 50% inhibition at 10 µM
T1 sequence (P25024 whole entry): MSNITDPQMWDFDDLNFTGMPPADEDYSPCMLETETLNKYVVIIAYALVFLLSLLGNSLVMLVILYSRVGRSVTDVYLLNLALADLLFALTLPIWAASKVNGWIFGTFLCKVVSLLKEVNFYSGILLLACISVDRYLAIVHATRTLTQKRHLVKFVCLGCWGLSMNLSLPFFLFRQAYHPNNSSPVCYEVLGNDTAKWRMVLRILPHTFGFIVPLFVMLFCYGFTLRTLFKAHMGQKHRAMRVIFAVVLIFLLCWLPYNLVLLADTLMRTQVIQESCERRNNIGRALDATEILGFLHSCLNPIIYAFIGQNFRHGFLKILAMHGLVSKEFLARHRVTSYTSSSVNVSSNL

Cytochrome P450 2A6 = biological target: T2, Cytochrome P450 2A6 (Homo sapiens, UniProt P11509); details: bti-tn-5b1-4; also: in other assays of this panel Not Active means under 50% inhibition at 10 µM
T2 sequence (P11509 whole entry): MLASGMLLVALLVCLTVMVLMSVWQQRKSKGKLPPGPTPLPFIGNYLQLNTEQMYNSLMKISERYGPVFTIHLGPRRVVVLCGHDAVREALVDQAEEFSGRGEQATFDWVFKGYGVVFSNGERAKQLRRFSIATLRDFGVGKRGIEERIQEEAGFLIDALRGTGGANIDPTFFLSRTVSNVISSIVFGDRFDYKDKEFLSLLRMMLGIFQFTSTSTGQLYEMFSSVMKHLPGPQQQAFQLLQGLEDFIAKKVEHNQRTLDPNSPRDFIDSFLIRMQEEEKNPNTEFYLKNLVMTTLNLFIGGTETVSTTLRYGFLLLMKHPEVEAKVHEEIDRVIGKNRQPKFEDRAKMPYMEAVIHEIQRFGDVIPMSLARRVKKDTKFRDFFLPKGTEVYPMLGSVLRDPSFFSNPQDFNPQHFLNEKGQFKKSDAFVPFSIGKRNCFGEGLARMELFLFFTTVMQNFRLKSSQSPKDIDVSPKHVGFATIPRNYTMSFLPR

[4] = DRUGMATRIX: GABAA, Muscimol, Central radioligand binding (ligand: [3H] Muscimol); type: cell membranes, Rattus norvegicus, Wistar, Brain, Membrane; details: Not Active = under 50% inhibition at 10 µM
[5] = biological target: Voltage-gated inwardly rectifying potassium channel KCNH2 (Homo sapiens, UniProt Q12809); details: hek293; also: in other assays of this panel Not Active means under 50% inhibition at 10 µM
Chain of Voltage-gated inwardly rectifying potassium channel KCNH2 (Q12809 whole entry): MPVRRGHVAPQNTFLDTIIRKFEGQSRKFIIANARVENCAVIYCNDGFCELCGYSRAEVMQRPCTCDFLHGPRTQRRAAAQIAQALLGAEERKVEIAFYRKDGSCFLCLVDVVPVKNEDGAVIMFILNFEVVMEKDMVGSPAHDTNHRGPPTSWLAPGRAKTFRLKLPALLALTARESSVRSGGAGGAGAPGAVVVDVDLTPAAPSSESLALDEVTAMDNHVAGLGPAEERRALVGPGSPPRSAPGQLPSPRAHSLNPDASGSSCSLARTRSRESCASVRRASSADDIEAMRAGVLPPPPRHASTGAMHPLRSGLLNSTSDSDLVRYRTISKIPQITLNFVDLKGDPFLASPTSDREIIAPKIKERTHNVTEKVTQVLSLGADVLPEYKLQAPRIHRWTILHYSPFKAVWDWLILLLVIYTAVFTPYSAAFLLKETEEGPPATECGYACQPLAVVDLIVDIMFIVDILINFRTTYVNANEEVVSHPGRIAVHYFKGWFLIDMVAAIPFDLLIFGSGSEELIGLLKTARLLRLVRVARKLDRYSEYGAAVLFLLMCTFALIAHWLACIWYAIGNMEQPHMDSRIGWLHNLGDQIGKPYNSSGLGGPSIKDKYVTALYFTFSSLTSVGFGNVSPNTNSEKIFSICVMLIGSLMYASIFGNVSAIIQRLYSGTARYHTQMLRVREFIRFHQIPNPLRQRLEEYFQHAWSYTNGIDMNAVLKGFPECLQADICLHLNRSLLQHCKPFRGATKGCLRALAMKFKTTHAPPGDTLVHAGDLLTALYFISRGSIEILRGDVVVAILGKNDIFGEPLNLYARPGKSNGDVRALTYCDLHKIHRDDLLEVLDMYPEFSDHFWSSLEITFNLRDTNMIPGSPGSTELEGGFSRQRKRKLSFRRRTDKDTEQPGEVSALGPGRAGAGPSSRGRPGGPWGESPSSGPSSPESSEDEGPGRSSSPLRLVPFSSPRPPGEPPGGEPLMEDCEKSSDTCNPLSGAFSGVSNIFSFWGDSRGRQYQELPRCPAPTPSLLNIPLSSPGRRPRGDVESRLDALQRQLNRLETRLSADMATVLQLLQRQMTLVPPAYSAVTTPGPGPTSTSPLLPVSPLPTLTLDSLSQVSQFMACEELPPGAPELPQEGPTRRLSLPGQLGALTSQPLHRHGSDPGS

Chain of Matrix metalloproteinase-9 (P14780 whole entry): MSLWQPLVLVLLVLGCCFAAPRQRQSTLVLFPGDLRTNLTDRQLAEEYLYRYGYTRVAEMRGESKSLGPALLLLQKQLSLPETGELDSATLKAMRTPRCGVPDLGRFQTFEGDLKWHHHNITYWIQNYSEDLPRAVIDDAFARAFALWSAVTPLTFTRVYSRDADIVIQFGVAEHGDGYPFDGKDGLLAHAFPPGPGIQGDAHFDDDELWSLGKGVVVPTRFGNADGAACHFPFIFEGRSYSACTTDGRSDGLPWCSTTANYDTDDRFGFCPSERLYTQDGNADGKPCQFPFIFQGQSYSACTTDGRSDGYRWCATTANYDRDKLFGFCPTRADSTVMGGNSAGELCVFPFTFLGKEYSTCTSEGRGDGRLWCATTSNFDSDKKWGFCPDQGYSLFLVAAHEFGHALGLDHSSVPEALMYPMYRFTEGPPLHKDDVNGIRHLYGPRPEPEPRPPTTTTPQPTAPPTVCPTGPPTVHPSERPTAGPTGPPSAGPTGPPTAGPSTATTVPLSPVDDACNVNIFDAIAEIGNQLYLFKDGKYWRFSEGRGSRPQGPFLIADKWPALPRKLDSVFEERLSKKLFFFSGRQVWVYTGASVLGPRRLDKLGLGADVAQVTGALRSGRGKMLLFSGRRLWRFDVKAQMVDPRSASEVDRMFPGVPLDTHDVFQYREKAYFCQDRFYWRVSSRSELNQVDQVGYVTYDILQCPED

| Compound | IC50 [1] | Ki [1] | IC50 [2] | IC50 (Glycine receptor) | IC50 [3] | IC50 (Cytochrome P450 2A6) | Ki (Cytochrome P450 2A6) | IC50 [4] | Ki [4] | IC50 [5] | Ki [5] | IC50 ([2]; read-out: IC50) |
| --- | --- | --- | --- | --- | --- | --- | --- | --- | --- | --- | --- | --- |
| OCCO [ETHYLENE GLYCOL] | Not Active | Not Active | Not Active | Not Active | Not Active | Not Active | Not Active | Not Active | Not Active | Not Active | Not Active | – |
| NC[C@H]1O[C@H](O[C@H]2[C@H](O)[C@@H](O[C@H]3O[C@H](CO)[C@@H](O)[C@H](N)[C@H]3O)[C@H](N)C[C@@H]2N)[C@H](O)[C@@H](O)[C@@H]1O [KANAMYCIN] | Not Active | Not Active | Not Active | Not Active | Not Active | Not Active | Not Active | Not Active | Not Active | Not Active | Not Active | – |
| O=C(/C=C/c1ccc(O)c(O)c1)OCCc1ccccc1 [CAFFEIC ACID PHENETHYL ESTER] | Not Active | Not Active | Not Active | Not Active | Not Active | Not Active | Not Active | Not Active | Not Active | Not Active | Not Active | – |
| NC[C@@H]1O[C@H](O[C@H]2[C@@H](O)[C@H](O[C@@H]3[C@@H](O)[C@H](N)C[C@H](N)[C@H]3O[C@H]3O[C@H](CN)[C@@H](O)[C@H](O)[C@H]3N)O[C@@H]2CO)[C@H](N)[C@@H](O)[C@@H]1O [FRAMYCETIN] | Not Active | Not Active | Not Active | Not Active | Not Active | Not Active | Not Active | Not Active | Not Active | Not Active | Not Active | – |
| CCCCCC[C@H]1C(=O)O[C@H](C)[C@H](NC(=O)c2cccc(NC=O)c2O)C(=O)O[C@@H](C)[C@@H]1OC(=O)CC(C)C [ANTIMYCIN A] | Not Active | Not Active | Not Active | Not Active | Not Active | Not Active | Not Active | Not Active | Not Active | Not Active | Not Active | – |
| Oc1ccccc1O [CATECHOL] | Not Active | Not Active | – | Not Active | Not Active | Not Active | Not Active | Not Active | Not Active | Not Active | Not Active | 23.4 µM |
| Cc1c(F)c(N2CCNC(C)C2)cc2c1c(=O)c(C(=O)O)cn2C1CC1 (stereo not given) [GREPAFLOXACIN] | Not Active | Not Active | Not Active | Not Active | Not Active | Not Active | Not Active | Not Active | Not Active | Not Active | Not Active | – |
| [N-]=[N+]=CC(=O)OC[C@H](N)C(=O)O [AZASERINE] | Not Active | Not Active | Not Active | Not Active | Not Active | Not Active | Not Active | Not Active | Not Active | Not Active | Not Active | – |
| C#C[C@]1(O)CC[C@H]2[C@@H]3CCC4=Cc5oncc5C[C@]4(C)[C@H]3CC[C@@]21C [DANAZOL] | Not Active | Not Active | Not Active | Not Active | Not Active | Not Active | Not Active | Not Active | Not Active | Not Active | Not Active | – |
| CO[C@H]1[C@@H](O)[C@H](N)[C@@H](O[C@H]2O[C@H]([C@H](C)N)CC[C@H]2N)[C@H](O)[C@@H]1N(C)C(=O)CN [ASTROMICIN] | Not Active | Not Active | Not Active | Not Active | Not Active | Not Active | Not Active | Not Active | Not Active | Not Active | Not Active | – |
